Our source for the tissue uptake values is publication PMC4402678, “Twins in spirit - episode I: comparative preclinical evaluation of [^68Ga]DOTATATE and [^68Ga]HA-DOTATATE” (EJNMMI Research, 2015).

The conditions of data set [1]: mouse, in vivo, iv, Biodistribution Lung, Control.
Protocol: (§1) To establish tumor growth, AR42J cells were detached from the surface of the culture flasks using 1 mM EDTA in PBS, centrifuged, and resuspended in serum-free culture medium. Concentration of the cell suspension was 2.5 to 5 × 10^6 cells/100 μL. Nude mice (CD-1 nu/nu, female, 6 to 8 weeks, from Charles River WIGA GmbH, Sulzfeld, Germany) were injected with 100 μL of the cell suspension subcutaneously into the flank. […] For competition studies, 20 μg TOC (0.8 mg/kg) were coinjected with the radioligands. The animals (groups of 4 to 5) were sacrificed 1 h post injection and the organs of interest were dissected. The radioactivity was measured in weighted tissue samples using a γ-counter. Data are given in %iD/g and are means ± SD.
Data set [2] in a line: Biodistribution in AR42J tumor-bearing nude mice. The following applies: mouse, in vivo, 60 min p.i.
Protocol: as §1

Structures are written as SMILES. Read-outs that look alike come from different tables or passages of the source.

On to `C[C@@H](O)[C@H](NC(=O)[C@@H]1CSSC[C@H](NC(=O)[C@@H](Cc2ccccc2)NC(=O)CN2CCN(CC(=O)O)CCN(CC(=O)O)CCN(CC(=O)O)CC2)C(=O)N[C@@H](Cc2ccc(O)cc2)C(=O)N[C@H](Cc2c[nH]c3ccccc23)C(=O)N[C@@H](CCCCN)C(=O)N[C@@H]([C@@H](C)O)C(=O)N1)C(=O)O` [[^68Ga]DOTATATE, [^68Ga]DOTA-Tyr^3-octreotate, metal not drawn], for which the tissue uptake at 1 h in data set [1] was determined as 8.4 ± 1.4 %ID/g; in data set [2] (Biodistribution AR42J tumor, Competition, coinjection of 20 μg/mouse unlabeled TOC, n = 3), 2 ± 0.1 %ID/g; in data set [2] (Biodistribution Adrenals, Competition, coinjection of 20 μg/mouse unlabeled TOC, n = 3), 0.4 ± 0.1 %ID/g; in data set [2] (Biodistribution Blood, Competition, coinjection of 20 μg/mouse unlabeled TOC, n = 3) it was 0.4 ± 0.2 %ID/g; in data set [2] (Biodistribution Heart, Competition, coinjection of 20 μg/mouse unlabeled TOC, n = 3), 0.2 ± 0.1 %ID/g; in data set [2] (Biodistribution Intestine, Competition, coinjection of 20 μg/mouse unlabeled TOC, n = 3) it was 0.6 ± 0.2 %ID/g. In addition, the tissue uptake at 1 h came out at 0.2 ± 0.05 %ID/g in data set [2] (Biodistribution Liver, Competition, coinjection of 20 μg/mouse unlabeled TOC, n = 3); 0.6 ± 0.2 %ID/g in data set [2] (Biodistribution Lung, Competition, coinjection of 20 μg/mouse unlabeled TOC, n = 3); 0.2 ± 0.1 %ID/g in data set [2] (Biodistribution Muscle, Competition, coinjection of 20 μg/mouse unlabeled TOC, n = 3); 0.2 ± 0.03 %ID/g in data set [2] (Biodistribution Spleen, Competition, coinjection of 20 μg/mouse unlabeled TOC, n = 3); 0.7 ± 0.1 %ID/g in data set [2] (Biodistribution Stomach, Competition, coinjection of 20 μg/mouse unlabeled TOC, n = 3); 24.1 ± 4.9 %ID/g in data set [2] (iv, Biodistribution AR42J tumor, Control, tracer only, n = 5). The tissue uptake at 1 h turned out to be 5.1 ± 1.4 %ID/g in data set [2] (iv, Biodistribution Adrenals, Control, tracer only, n = 5); 0.3 ± 0.06 %ID/g in data set [2] (iv, Biodistribution Blood, Control, tracer only, n = 5); 0.3 ± 0.04 %ID/g in data set [2] (iv, Biodistribution Heart, Control, tracer only, n = 5); 2.7 ± 0.8 %ID/g in data set [2] (iv, Biodistribution Intestine, Control, tracer only, n = 5); 3.9 ± 0.5 %ID/g in data set [2] (iv, Biodistribution Kidney, Control, tracer only, n = 5); 0.5 ± 0.1 %ID/g in data set [2] (iv, Biodistribution Liver, Control, tracer only, n = 5). The tissue uptake at 1 h in data set [2] (iv, Biodistribution Muscle, Control, tracer only, n = 5) is 0.3 ± 0.2 %ID/g; in data set [2] (iv, Biodistribution Pancreas, Control, tracer only, n = 5) it was 26.1 ± 4.9 %ID/g; in data set [2] (iv, Biodistribution Stomach, Control, tracer only, n = 5) it was 15.9 ± 3.9 %ID/g.

The term tissue uptake denotes the share of the injected amount in each gram of the tissue. The low end stands for low uptake, the high end for high uptake.
